The nature of data set [1]: Solubility of the AmB derivatives. The class given is physicochemical. The note with it: 5% glucose solution, ambient temperature, up to saturation; read-out: solubility (soluble up to a concentration of). Here is the method:
C.2. Solubility of the AmB derivatives according to the present invention
AmB or the derivatives obtained are dissolved at ambient temperature in a 5% glucose solution up to saturation.

Data set [2] can be described thus: Toxicity on nucleated cells, mice thymocytes. The data set is classed as cell-based. The note with it: mouse, thymocytes, 1 hour 30, trypan blue, read-out: LD 50 (concentration leading to a mortality of 50%).
Data set [3] is described as follows: Toxicity on nucleated cells, human bone marrow. The data set is classed as cell-based. Conditions: 1 hour 30, trypan blue, read-out: LD 50 (concentration leading to a mortality of 50%). Here is the method: (§1) B.2: Study of the toxicity on nucleated cells
(§2) The solutions of the amphotericine B derivatives are prepared similarly to those mentioned in paragraph B.1.
(§3) The cells are prepared by placing 20 ml of blood diluted to 1/2 with 0.9% NaCl into a tube together with 10 ml of Ficoll-hypaque, and the mixture is centrifuged at 2000 rpm for 30 minutes. The cell nuclei are recovered and washed twice with PBS buffer containing 5% of foetal calf serum.
(§4) The cells are prepared by suspending 1.14×10^6 cells/ml in RPMI 1640 containing 2.5% of foetal calf serum and by filling each well with 150 μl. 50 μl of each dilution of the derivatives are added and also one control (5% glucose solution).
(§5) The cells are then incubated in a steam cabinet at a CO2 concentration of 5% for 1 hour 30 at 37° C. or at ambient temperature.
(§6) To evaluate the toxicity of the derivatives, a cell count in the presence of trypan blue is made, and the LD 50 (concentration of the derivative leading to a mortality of 50%) is calculated with respect to the control (5% glucose solution) for each concentration of each derivative.

The subject of the next data set is PBL. Put plainly: Toxicity on nucleated cells, human PBL. Conditions: human PBL, 1 hour 30, trypan blue; 90 min; read-out: LD 50 (concentration leading to a mortality of 50%). The class given is cell-based. Here is the method: as §1, §2, §3, §4, §5, §6
Data set [4] has as its system red corpuscles. As to the kind of experiment: Toxicity on red corpuscles (lysis), mice. Conditions: 37° C., 1 hour 30, 90 min, 90 min, read-out: LD 50 (dose which leads to lysis in 50% of the erythrocytes). The data set is classed as cell-based. Here is the method:
(§7) B.1: Study of the toxicity on red corpuscles
(§8) All the solutions of the AmB derivatives according to the invention were prepared immediately before use by diluting 4 mg of substance in 100 μl of 5% glucose solution, and then, after 15 minutes protected from light, 100 μl of sterile distilled water are added, and the mixture is made up to stock solutions of 4 mg/ml with a 5% glucose solution. For comparative study of the effects of AmB, 4 mg of FUNGIZONE are diluted with 1 ml of 5% glucose.
(§9) The cells are prepared by placing 1 ml of a peripheral blood sample into a tube together with Ficollhypaque to remove the lymphocytes, and then centrifuging the mixture at 2000 rpm for 20 minutes. The remaining red corpuscles are recovered, washed once with 0.9% NaCl and then twice with 150 Mm KCl, 0.5 Mm tris-HCl, pH 7.4.
(§10) A 1.25% suspension is then prepared with 150 mM KCl solution, 0.5 mM tris-HCl, pH 7.4, and 150 μl thereof are distributed in wells along with 50 μl of each of the dilutions of the derivatives, plus a control well (5% glucose solution).
(§11) The cells are then incubated at 37° C. in a steam cabinet for 1 hour 30.
(§12) To evaluate the cell lysis, haemoglobin is essayed by removing 100 μl of the supernatant in each well and diluting the sample with 1 ml of distilled water.
(§13) The haemoglobin concentration is calculated by measuring the optical density at 540 nm and taking into account the absorption of the derivatives of amphotericine B.
(§14) LD 50 is the dose which leads to lysis in 50% of the erythrocytes (a control of 100% lysis is obtained with distilled water, and reference lysis of 0% is obtained with the 5% glucose solution).

The subject of the next data set is Aspergillus flavus. As to the kind of experiment: Diffusion method in agar-agar medium (Sabouraud agar-agar). The class given is cell-based. The note with it: Sabouraud agar-agar, disc diameter 1 cm, 0.1 ml. Here is the method: (§15) A.2 : Study of the antibiotic efficiency of amphotericine B derivatives in agar-agar medium against Aspergillus
(§16) The antibiotic activity was tested by the diffusion method in agar-agar medium (Sabouraud agar-agar).
(§17) The efficiency of each molecule was determined by the size of the growth-inhibiting zone around a WHATMAN 3M paper disc impregnated with the antibiotic substance of a given concentration.
(§18) A suspension of Aspergillus spores in a broth was prepared, 0.2 ml of this suspension was used to inoculate at its surface an agar-agar medium which was solidified in such a manner that a homogeneous growth layer was obtained. After spreading, the WHATMAN 3M paper discs (diameter: 1 cm) were placed on the surface of the agar-agar, and then impregnated with 0.1 ml of the antibiotic substance at different concentrations.

The test system of the next data set is Aspergillus fumigatus. Described as above. The class given is cell-based. The note with it: Aspergillus fumigatus, Sabouraud agar-agar, disc diameter 1 cm, 0.1 ml; read-out: concentration giving a growth inhibition of 1 cm around a disc in solid medium. Here is the method:
as §15, §16, §17, §18

A further data set deals with Pytirosporum orbiculare. As to the kind of experiment: Growth inhibition in liquid medium (Sabouraud broth). The class given is cell-based. Conditions: Sabouraud broth, 28° C., 18 hours; read-out: IC 50 (growth-inhibiting concentration of 50%). Here is the method:
(§19) A.1 : Study of the antibiotic efficiency of AmB derivatives in liquid medium against different yeasts
(§20) The antibiotic efficiency was tested by the growth inhibition method in liquid medium (Sabouraud broth) in the presence of different concentrations of the derivatives studied.
(§21) A yeast suspension was cultivated in a broth in such a manner that about 1×10^2 cell/ml were obtained.
(§22) The tubes containing the different concentrations of antifungal substance were inoculated with the same amount of yeast cells, and were then incubated at 28° C. for 18 hours with stirring. For each concentration of antifungal substance, two identical tubes were prepared.
(§23) The inhibition of fungal growth corresponding to the different concentrations was evaluated for each molecule by spectrophotometry at 620 nm and expressed in percent with respect to a reference solution without antifungal substance.

For the next data set, the system named is Candida albicans B 2630. The description is as above. The class given is cell-based. Conditions: B2630, Sabouraud broth, 28° C., 18 hours, read-out: IC 50 (growth-inhibiting concentration of 50%). Here is the method: as §19, §20, §21, §22, §23
The subject of another data set is Candida albicans. The description is as above. The data set is classed as cell-based. Conditions: Candida albicans, 18 h, Sabouraud broth, 28° C., 18 hours; read-out: IC 50 (growth-inhibiting concentration of 50%). Here is the method:
as §19, §20, §21, §22, §23

The subject of the next data set is Saccharomyces cerevisiae. The description is as above. The class given is cell-based. The note with it: Saccharomyces cerevisiae, 18 h, Sabouraud broth, 28° C., 18 hours; read-out: IC 50 (growth-inhibiting concentration of 50%). Here is the method:
as §19, §20, §21, §22, §23

The subject of the next data set is Cryptoccocus neoformans. Described as above. Conditions: 18 h, Sabouraud broth, 28° C., 18 hours; read-out: IC 50 (growth-inhibiting concentration of 50%). The data set is classed as cell-based. Here is the method:
as §19, §20, §21, §22, §23

Data set [5] in a line: Toxicity on nucleated cells, human thymocytes. The class given is cell-based. The note with it: 1 hour 30, trypan blue, read-out: LD 50 (concentration leading to a mortality of 50%). Here is the method: as §1, §2, §3, §4, §5, §6
The nature of data set [6]: Toxicity on nucleated cells, mice T lymph gland cells. The note with it: mouse, 1 hour 30, trypan blue, read-out: LD 50 (concentration leading to a mortality of 50%). The data set is classed as cell-based. Here is the method: as §1, §2, §3, §4, §5, §6
In data set [7] the test system is red corpuscles. Put plainly: Toxicity on red corpuscles (lysis), human. The data set is classed as cell-based. The note with it: 37° C., 1 hour 30, 90 min, 90 min, read-out: LD 50 (dose which leads to lysis in 50% of the erythrocytes). Here is the method:
as §7, §8, §9, §10, §11, §12, §13, §14

In another data set the test system is X 63 (mice lymphoma B). As to the kind of experiment: Toxicity on nucleated cells, X 63 mice lymphoma B. The data set is classed as cell-based. The note with it: 1 hour 30, trypan blue, 90 min, read-out: LD 50 (concentration leading to a mortality of 50%).
The nature of data set [8]: Toxicity on nucleated cells, DAUDI human lymphoma B. The class given is cell-based. The note with it: human, daudi lymphoma b cells, 1 hour 30, trypan blue, read-out: LD 50 (concentration leading to a mortality of 50%).
Data set [9] is described as follows: Toxicity on nucleated cells, mice B lymph gland cells. The note with it: mouse, 1 hour 30, trypan blue, read-out: LD 50 (concentration leading to a mortality of 50%). The data set is classed as cell-based. Here is the method:
as §1, §2, §3, §4, §5, §6

≈ marks a conversion by molar mass, not a printed value.

For the molecule `C[C@@H]1[C@H](O)[C@@H](C)/C=C/C=C/C=C/C=C/C=C/C=C/C=C/[C@H](O[C@@H]2O[C@H](C)[C@@H](O)[C@H](NCC3(O)O[C@H](C(N)=O)[C@@H](O)[C@@H]3O)[C@@H]2O)C[C@@H]2O[C@](O)(C[C@@H](O)C[C@@H](O)[C@H](O)CC[C@@H](O)C[C@@H](O)CC(=O)O[C@H]1C)C[C@H](O)[C@H]2C(=O)O` (stereo partly drawn) [AmB 12, 1-amino-1-deoxy-D-arabinoglucuronamidyl-AmB], the solubility in [1] came to 150 mg/mL (≈ 136 mM).
Regarding `C[C@@H]1[C@H](O)[C@@H](C)/C=C/C=C/C=C/C=C/C=C/C=C/C=C/[C@H](O[C@@H]2O[C@H](C)[C@@H](O)[C@H](NCC(=O)[C@@H](O)[C@@H]3OC(c4ccccc4)OC[C@H]3O)[C@@H]2O)C[C@@H]2O[C@](O)(C[C@@H](O)C[C@@H](O)[C@H](O)CC[C@@H](O)C[C@@H](O)CC(=O)O[C@H]1C)C[C@H](O)[C@H]2C(=O)O` (stereo partly drawn) [AmB 20, 1-deoxy-1-amino-4,6-O-benzylidene-D-fructosyl-AmB], the solubility in [1] came to 40 mg/mL (≈ 34.1 mM).
On to `C[C@@H]1[C@H](O)[C@@H](C)/C=C/C=C/C=C/C=C/C=C/C=C/C=C/[C@H](O[C@@H]2O[C@H](C)[C@@H](O)[C@H](NCC(=O)[C@@H](O)[C@@H]3OC(c4ccccc4)OC[C@H]3O)[C@@H]2O)C[C@@H]2O[C@](O)(C[C@@H](O)C[C@@H](O)[C@H](O)CC[C@@H](O)C[C@@H](O)CC(=O)O[C@H]1C)C[C@H](O)[C@H]2C(=O)O` (stereo partly drawn) [AmB 20 F, 1-deoxy-1-amino-4,6-O-benzylidene-D-fructosyl-AmB], for which the CC50 at 1.5 h is 8 µM in data set [2]; 1000 µM in data set [3]; above 300 µM in data set [5]; 100 µM in data set [6]; above 1000 µM in data set [8]; 100 µM in data set [9]. Moreover, the CC50 with PBL and in the data set with X 63 (mice lymphoma B) was above 1000 µM throughout. Moreover, the HC50 with red corpuscles [4] amounted to 120 µM; with red corpuscles [7], 200 µM. Also, the “concentration giving a growth inhibition of 1 cm around a disc in solid medium” value in the data set with Aspergillus flavus was 1.5 × 10^-4 molarity. Moreover, in the data set with Aspergillus fumigatus, the IC (1 cm inhibition zone) was determined as 200 µM. For the same molecule, the IC50 turned out to be 0.1 µM with Pytirosporum orbiculare; 0.15 µM in the data set on Candida albicans B 2630; 0.085 µM with Candida albicans; 1.1 µM in the data set on Saccharomyces cerevisiae; 0.045 µM in the data set with Cryptoccocus neoformans.

(Values after US5314999A, “Derivatives of basic polyene macrolides and their preparation” (Laboratoires Mayoly-Spindler, priority 1989, dated 1994).)
